In patent publication US11684650B2, “Composition for preventing, alleviating, or treating cachexia and muscle loss” (CHUNG-ANG UNIVERSITY INDUSTRY ACADEMIC COOPERATION …, priority 2018, dated 2023):

Assays:
Assay type in all cases: in vivo, C57BL/6 mice
[1] = tested on: mice with tumors induced by Lewis lung carcinoma (LLC) cells; test: Treadmill running time test, LLC tumor-bearing mice; conditions: maximum 600 seconds, day 12 of oral treatment, extract 100 mg/kg, Megace 125 mg/kg, mean ± standard deviation
Protocol: (§1) The mice were divided into a normal group (healthy group), a control group (tumor-induced group), a conventional drug-administered group and a Paeoniae radix extract-administered group, each group consisting of 9 animals. Each animal of the normal group was injected subcutaneously with 100 μl of PBS, and the tumor-induced group (control group), the conventional drug-administered group and the Paeoniae radix extract-administered group were injected subcutaneously with MC38 colorectal cancer cells (1×10^6 cells/100 μl) or Lewis lung carcinoma (LLC) cells (1×10^6 cells/100 μl). […] During the experiment, the food uptake of each mouse was recorded. In addition, the muscle strength of each mouse was measured with a grip strength test device (Bioseb, USA), and the endurance of each mouse was measured under the condition of maximum exercise time of 600 seconds using a treadmill device (Columbus Instrument, USA).
(§2) On day 12th day of the oral treatment of conventional drug or the Paeoniae radix extract to the tumor-induced mice, the muscle strength and endurance of the mice were measured by a grip strength (g) test and a treadmill running time (sec) test, respectively.

[2] = tested on: mice with tumors induced by MC38 colorectal cancer cells; test: Food intake of MC38 tumor-bearing mice; conditions: oral 14 days, extract 100 mg/kg, Megace 125 mg/kg, mean ± standard deviation
Protocol: (§3) As experimental animals, 4-week-old male C57BL/6 mice (weighed 18 to 20 g) were purchased from Central Lab Animal Inc., acclimated in a laboratory animal facility for 1 week, and then used in the experiment. During the experiment, the animals were allowed to access feed and water ad libitum, and housed at cages at a temperature of 22±2° C. and a relative humidity of 60±5% under a 12-hr light/12-hr dark cycle.
(§4) The mice were divided into a normal group (healthy group), a control group (tumor-induced group), a conventional drug-administered group and a Paeoniae radix extract-administered group, each group consisting of 9 animals. […] During the experiment, the food uptake of each mouse was recorded. In addition, the muscle strength of each mouse was measured with a grip strength test device (Bioseb, USA), and the endurance of each mouse was measured under the condition of maximum exercise time of 600 seconds using a treadmill device (Columbus Instrument, USA).
(§5) While the Paeoniae radix extract was administered orally to the mice for 14 days after tumor induction, the food intake of the mice was recorded. […]

[3] = tested on: mice with tumors induced by Lewis lung carcinoma (LLC) cells; test: Food intake and body weight of LLC tumor-bearing mice; conditions: oral 14 days, extract 100 mg/kg, Megace 125 mg/kg, mean ± standard deviation
Protocol: as §3, §4, §5

[4] = tested on: mice with tumors induced by Lewis lung carcinoma (LLC) cells; test: Grip strength test, LLC tumor-bearing mice; conditions: grip strength on day 12 of oral treatment, extract 100 mg/kg, Megace 125 mg/kg, mean ± standard deviation
Protocol: as §1, §2

[5] = tested on: mice with tumors induced by MC38 colorectal cancer cells; test: Grip strength test, MC38 tumor-bearing mice; conditions: grip strength on day 12 of oral treatment, extract 100 mg/kg, Megace 125 mg/kg, mean ± standard deviation
Protocol: as §1, §2

[6] = tested on: MC38 colorectal cancer cells; test: Tumor weight, MC38 tumor-bearing mice; conditions: oral 14 days, extract 100 mg/kg, Megace 125 mg/kg, mean ± standard deviation
Protocol: as §1
(§6) After completion of the experiment, the mice were euthanized, blood was collected therefrom, and then the tumor weight and the hind limb muscle weight were measured, and the serum and muscle concentrations of TNF-α, IL-6, IL-1 and MCP-1 were quantified by ELISA assay. […]
(§7) After the Paeoniae radix extract was administered orally to the mice for 14 days after tumor induction, the mice were euthanized and the tumor weight was measured. […]

IL-6 = test: Serum and muscle inflammatory cytokine ELISA, MC38 tumor-bearing mice; conditions: oral 14 days, extract 100 mg/kg, Megace 125 mg/kg, mean ± standard deviation
Protocol: as §1, §6
After the Paeoniae radix extract was administered orally to the mice for 14 days after tumor induction, the mice were euthanized and the serum and muscle concentrations of inflammatory cytokines were measured. […]

[7] = tested on: mice with tumors induced by MC38 colorectal cancer cells; test: Treadmill running time test, MC38 tumor-bearing mice; conditions: maximum 600 seconds, day 12 of oral treatment, extract 100 mg/kg, Megace 125 mg/kg, mean ± standard deviation
Protocol: as §1, §2

[8] = tested on: Lewis lung carcinoma (LLC) cells; test: Tumor weight, LLC tumor-bearing mice; conditions: oral 14 days, extract 100 mg/kg, Megace 125 mg/kg, mean ± standard deviation
Protocol: as §1, §6, §7

TNF-α, IL-6, MCP-1 = test: Serum and muscle inflammatory cytokine ELISA, LLC tumor-bearing mice; conditions: oral 14 days, extract 100 mg/kg, Megace 125 mg/kg, mean ± standard deviation
Protocol: The mice were divided into a normal group (healthy group), a control group (tumor-induced group), a conventional drug-administered group and a Paeoniae radix extract-administered group, each group consisting of 9 animals. Each animal of the normal group was injected subcutaneously with 100 μl of PBS, and the tumor-induced group (control group), the conventional drug-administered group and the Paeoniae radix extract-administered group were injected subcutaneously with MC38 colorectal cancer cells (1×10^6 cells/100 μl) or Lewis lung carcinoma (LLC) cells (1×10^6 cells/100 μl). When the tumor volume reached about 1,000 mm^3 after 2 weeks of tumor induction, the cancer cachexia treatment agent Megace (megestrol acetate), which is most frequently used in current clinical practice, was administered orally to the conventional drug-administered group. Dose of Megace was 125 mg/kg (=625 mg [daily human dose]/60 kg [human's average body weight]×12 [human/mouse body surface area dose equivalent factor]) for 14 days. Paeoniae radix extract prepared in Example 1 was administered orally to the Paeoniae radix extract-administered group for 14 days at a dose of 100 mg/kg, which is slightly lower than the dose of Megace. During the experiment, the food uptake of each mouse was recorded. In addition, the muscle strength of each mouse was measured with a grip strength test device (Bioseb, USA), and the endurance of each mouse was measured under the condition of maximum exercise time of 600 seconds using a treadmill device (Columbus Instrument, USA).
After completion of the experiment, the mice were euthanized, blood was collected therefrom, and then the tumor weight and the hind limb muscle weight were measured, and the serum and muscle concentrations of TNF-α, IL-6, IL-1 and MCP-1 were quantified by ELISA assay. In addition, the effect of the Paeoniae radix extract on the reduction of muscle atrophy factor (MAFbx) in the hind limb muscle of each LCC cancer-bearing mouse was measured using Western blot and immunofluorescence known in the art.
After the Paeoniae radix extract was administered orally to the mice for 14 days after tumor induction, the mice were euthanized and the serum and muscle concentrations of inflammatory cytokines were measured. As a result, as shown in Table 4 below and FIGS. 2 and 8, the concentrations of tumor-induced inflammatory cytokines increased in the control group (tumor-induced group) compared to the normal (healthy) group.

`CC(=O)O[C@]1(C(C)=O)CC[C@H]2[C@@H]3C=C(C)C4=CC(=O)CC[C@]4(C)[C@H]3CC[C@@]21C` [Conventional drug, megestrol acetate] gave an Endurance [1] of 338.333 ± 157.322 s, a Food intake [2] of 2.607 ± 0.357 g and a Food intake [3] of 2.891 ± 0.417 g. It also gave a Muscle strength [4] of 154.883 ± 17.238 g, a Muscle strength [5] of 172.065 ± 28.210 g and a Tumor weight [6] of 11.747 ± 3.073 g. The “Cytokine concentration, Muscle IL-6” value (IL-6) was 156.167 ± 29.486 pg/mL, the “Cytokine concentration, Serum IL-6” value (IL-6) was 49.222 ± 22.762 pg/mL and the Endurance [7] was 177.400 ± 60.844 s. The Tumor weight [8] was 7.797 ± 2.385 g, the “Cytokine concentration, Muscle TNF-α” value (TNF-α, IL-6, MCP-1) was 21.910 ± 5.414 pg/mL and the “Cytokine concentration, Serum IL-6” value (TNF-α, IL-6, MCP-1) was 15.616 ± 8.902 pg/mL. The “Cytokine concentration, Serum MCP-1” value (TNF-α, IL-6, MCP-1) was 431.670 ± 191.640 pg/mL and the “Cytokine concentration, Serum TNF-α” value (TNF-α, IL-6, MCP-1) was 3.302 ± 0.422 pg/mL.
